Assay results as given in US7553860B2, “Substituted gamma lactams as therapeutic agents” (Allergan, Inc., priority 2006, dated 2009).

Assays:
EP2 [1] = target: T1, EP2 (Homo sapiens, UniProt P43116); experiment: EP2 cAMP; assay type: cell-based
hDP/Gqs5 = target: T2, hDP/Gqs5 (Homo sapiens, UniProt Q13258); experiment: FLIPR calcium signal, hDP; assay type: cell-based; settings: HEK-293(EBNA) cells; read-out: Other Receptors (EC50 in nM) hDP
T2 construct: expressed in transfected cells; host or cells: HEK-293(EBNA)
T2 sequence (Q13258 1-359): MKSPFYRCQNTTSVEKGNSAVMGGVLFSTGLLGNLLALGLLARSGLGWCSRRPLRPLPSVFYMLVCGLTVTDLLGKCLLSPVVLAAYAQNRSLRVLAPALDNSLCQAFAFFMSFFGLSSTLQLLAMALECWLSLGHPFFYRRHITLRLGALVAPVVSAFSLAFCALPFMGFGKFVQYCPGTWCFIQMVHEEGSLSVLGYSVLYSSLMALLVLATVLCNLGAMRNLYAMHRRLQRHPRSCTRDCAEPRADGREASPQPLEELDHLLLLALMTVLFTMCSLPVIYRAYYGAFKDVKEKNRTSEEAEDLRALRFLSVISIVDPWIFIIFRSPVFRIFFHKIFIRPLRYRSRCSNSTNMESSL
Procedure: (§1) HEK-293(EBNA) cells, stably expressing one type or subtype of recombinant human prostaglandin receptors (prostaglandin receptors expressed: hDP/Gqs5; hEP1; hEP2/Gqs5; hEP3A/Gqi5; hEP4/Gqs5; hFP; hIP; hTP), are cultured in 100 mm culture dishes in high-glucose DMEM medium containing 10% fetal bovine serum, 2 mM I-glutamine, 250 μg/ml geneticin (G418) and 200 μg/ml hygromycin B as selection markers, and 100 units/ml penicillin G, 100 μg/ml streptomycin and 0.25 μg/ml amphotericin B.
(§2) Cells are seeded at a density of 5×10^4 cells per well in Biocoat® Poly-D-lysine-coated black-wall, clear-bottom 96-well plates (Becton-Dickinson) and allowed to attach overnight in an incubator at 37° C. Cells are then washed two times with HBSS-HEPES buffer (Hanks Balanced Salt Solution without bicarbonate and phenol red, 20 mM HEPES, pH 7.4) using a Denley Cellwash plate washer (Labsystems). […]
(§3) Cells are excited with an Argon laser at 488 nm, and emission is measured through a 510-570 nm bandwidth emission filter (FLIPR™, Molecular Devices, Sunnyvale, Calif.). […] The peak increase in fluorescence intensity is recorded for each well. […] The peak fluorescence change in each drug-containing well is then expressed relative to the controls. […]

EP2 [2] = target: T1, EP2; experiment: EP2 competition binding ([3H]PGE2), Ki; parameters: expressed in transfected cells; host or cells: HEK 293; settings: HEK 293 cells stably expressing human EP2, [3H]PGE2
Procedure: Competition binding experiments are performed in a medium containing Hank's balanced salt solution, Hepes 20 mM, pH 7.3, membranes (˜60 μg protein) or 2×10^5 cells from HEK 293 cells stably expressing human EP2 receptors, [^3H]PGE2 (10 nM) and various concentrations of test compounds in a total volume of 300 μl. Reaction mixtures are incubated at 23° C. for 60 min, and are filtered over Whatman GF/B filters under vacuum. Filters are washed three times with 5 ml ice-cold buffer containing 50 mM Tris/HCl (pH 7.3). Non-specific binding is estimated in the presence of excess unlabeled PGE2 (10 μM). Binding data fitted to the binding model for a single class of binding sites, using nonlinear regression analysis. IC50 values thus obtained are converted to Ki using the equation of Ki=(IC50/(1+[L]/KD) where [L] represents PGE2 concentration (10 nM) and KD the dissociation constant for [^3H]PGE2 at human EP2 receptors (40 nM). […]
The cell homogenate is centrifuged at 19000 r.p.m. for 20 min at 4° C. using a Beckman Ti-60 rotor. The resultant pellet is resuspended in TME buffer to give a final 1 mg/ml protein concentration, as determined by Biorad assay. […]
[^3H-] […] 17-phenyl PGF2[…] and non-specific binding determined with 10^−5M of unlabeled PGE2, or 17-phenyl PGF2α, according to receptor subtype studied.

hEP2/Gqs5 = target: T3, hEP2/Gqs5 (Homo sapiens, UniProt P43116); experiment: EP2 FLIPR calcium signal; assay type: cell-based; settings: HEK-293(EBNA) cells
T3 construct: expressed in transfected cells; host or cells: HEK-293(EBNA)
T3 sequence (P43116 whole entry): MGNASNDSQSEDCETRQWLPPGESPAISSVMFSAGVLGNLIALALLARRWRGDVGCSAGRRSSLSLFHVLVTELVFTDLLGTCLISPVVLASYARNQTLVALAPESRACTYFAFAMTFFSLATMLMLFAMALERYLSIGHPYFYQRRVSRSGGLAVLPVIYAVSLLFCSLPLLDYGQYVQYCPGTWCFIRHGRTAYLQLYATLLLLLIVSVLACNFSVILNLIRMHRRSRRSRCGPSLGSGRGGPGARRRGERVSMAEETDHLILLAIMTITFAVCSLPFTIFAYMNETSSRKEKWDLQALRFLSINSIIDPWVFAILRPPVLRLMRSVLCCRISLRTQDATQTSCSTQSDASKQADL
Procedure: as §1, §2, §3

hEP3A/Gqi5 = target: T4, hEP3A/Gqi5 (Homo sapiens, UniProt P43115); experiment: FLIPR calcium signal, hEP3A; assay type: cell-based; settings: HEK-293(EBNA) cells; read-out: Other Receptors (EC50 in nM) hEP3A
T4 construct: expressed in transfected cells; host or cells: HEK-293(EBNA)
T4 sequence (P43115 1-390): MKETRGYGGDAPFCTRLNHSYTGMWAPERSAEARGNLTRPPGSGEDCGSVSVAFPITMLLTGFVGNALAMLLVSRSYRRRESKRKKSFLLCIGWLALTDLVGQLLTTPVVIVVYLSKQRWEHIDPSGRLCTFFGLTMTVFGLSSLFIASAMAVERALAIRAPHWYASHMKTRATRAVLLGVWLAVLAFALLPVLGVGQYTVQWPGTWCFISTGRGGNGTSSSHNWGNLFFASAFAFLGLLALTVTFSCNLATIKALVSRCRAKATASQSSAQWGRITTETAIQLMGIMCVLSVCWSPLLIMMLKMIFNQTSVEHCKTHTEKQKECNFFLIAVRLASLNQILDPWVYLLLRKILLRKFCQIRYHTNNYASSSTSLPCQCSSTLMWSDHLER
Procedure: as §1, §2, §3

T1 sequence (P43116 whole entry): as the sequence (P43116 whole entry) above

Row | EC50 (EP2 [1]) | EC50 (hDP/Gqs5) | Ki (EP2 [2]) | EC50 (hEP2/Gqs5) | EC50 (hEP3A/Gqi5) | SMILES
1 | 14 nM | > 10000 nM | 2710 nM | 817 nM | 995 nM | CCCCCC(O)c1ccc(N2C(=O)OC[C@@H]2COCc2ccc(C(=O)O)s2)cc1 (stereo partly drawn) [5-{(S)-3-[4-(1-Hydroxy-hexyl)-phenyl]-2-oxo-oxazolidin-4-ylmethoxymethyl}-thiophene-2-carboxylic acid]
2 | 13 nM | – | 1040 nM | – | – | CCCCCC(F)c1ccc(N2C(=O)OC[C@@H]2COCc2ccc(C(=O)O)s2)cc1 (stereo partly drawn) [5-{(S)-3-[4-(1-Fluoro-hexyl)-phenyl]-2-oxo-oxazolidin-4-ylmethoxymethyl}-thiophene-2-carboxylic acid]
